Reference: PubChem BioAssay (NCI)
“And” between values parts separate entries of the source, which are not always exact repeats. Equal values may be shown once.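 Each compound was tested at five concentrations against cells in 96-well plates for 48 hours. GI50 is the concentration that inhibits growth by half. TGI: total growth inhibition.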

Tests used:
Assay in all cases: NCI-60 cell line screen, 48 h
EKVX NSCLC = system: EKVX NSCLC
HT29 colon = system: HT29 colon
MALME-3M melanoma = system: MALME-3M melanoma
OVCAR-4 ovarian = system: OVCAR-4 ovarian
OVCAR-8 ovarian = system: OVCAR-8 ovarian
RXF 393 renal = system: RXF 393 renal
SF-268 CNS = system: SF-268 CNS
SK-MEL-28 melanoma = system: SK-MEL-28 melanoma
SNB-19 CNS = system: SNB-19 CNS
PC-3 prostate = system: PC-3 prostate

Compound | TGI (EKVX NSCLC) [µM] | TGI (HT29 colon) [µM] | TGI (MALME-3M melanoma) [µM] | TGI (OVCAR-4 ovarian) [µM] | TGI (OVCAR-8 ovarian) | TGI (RXF 393 renal) | TGI (SF-268 CNS) [µM] | TGI (SK-MEL-28 melanoma) [µM] | TGI (SNB-19 CNS) [µM] | GI50 (HT29 colon) | GI50 (MALME-3M melanoma) | GI50 (OVCAR-4 ovarian) [µM] | GI50 (OVCAR-8 ovarian) | GI50 (RXF 393 renal) | GI50 (SF-268 CNS) | GI50 (SK-MEL-28 melanoma) | GI50 (SNB-19 CNS) | GI50 (EKVX NSCLC) [µM] | GI50 (PC-3 prostate) [µM] | TGI (PC-3 prostate) [µM]
CN1C=C(C(N)=O)Cc2ccsc21 | > 100 | > 100 | > 100 | > 100 | > 100 µM | > 100 µM | > 100 | > 100 | > 100 |  |  |  |  |  |  |  |  |  |  | 
CCCCCCCCCCCCNCCCc1ccccc1 |  | 3.21 | 3.64 | 2.98 | 3.39 µM | 3.1 µM | 3.85 | 3.23 | 5.35 | 1.75 µM | 1.97 µM | 1.57 | 1.75 µM | 1.63 µM | 1.87 µM | 1.72 µM | 2.07 µM |  |  | 
O=S(=O)([O-])c1ccc(C=Nc2ccccc2)c([O-])c1.O=S(=O)([O-])c1ccc(C=Nc2ccccc2)c([O-])c1.[Co+2] | > 100 |  | > 100 |  | > 100 µM | > 100 µM | > 100 | > 100 | > 100 |  | 99.1 µM |  | 50.6 µM | > 100 µM | 5.18 µM | > 100 µM | > 100 µM | 43.2 |  | 
Nc1ncnc2c1ncn2C1(CO)OC(CO)C(O)C1O (stereo not given) |  | > 100 | > 100 | > 100 |  | > 100 µM | > 100 | > 100 | > 100 |  |  |  |  |  |  |  |  |  |  | 
CCOC(=O)C(c1ccsc1)P(=O)(OCC)OCC (stereo not given) | 80.1 | 39.7 | 60.8 | > 100 | 43.3 µM | 28.9 µM | 69.6 | 32.4 | 44.4 |  |  |  |  |  |  |  |  |  |  | 
CC(C)CC1CC2C(=O)N(c3ccccc3)C(=O)C2c2[nH]c3ccccc3c21 (stereo not given) | > 100 | > 100 | 37 | > 38.5 | 51.6 µM | 44.9 µM | > 100 | > 55.7 | > 100 |  |  |  |  |  |  |  |  |  |  | 
COc1ccc(-c2cc(-c3ccco3)c(C#N)c(=O)n2C2OC(COC(C)=O)C(OC(C)=O)C(OC(C)=O)C2OC(C)=O)cc1 (stereo not given) | > 100 | > 100 | > 100 | > 100 | > 100 µM and 40.4 µM | > 100 µM and 66.2 µM | > 100 | > 100 | > 100 | > 100 µM and 28.6 µM | > 100 µM and 25 µM |  | > 100 µM and 10.9 µM | > 100 µM and 21.8 µM | > 100 µM and 28.2 µM | > 100 µM and 26.7 µM | > 100 µM and 42.8 µM |  |  | 
C=CCC(NCc1ccccc1)c1cn(C(=O)OCC)c2ccccc12 (stereo not given) | 55.4 | > 100 |  | > 100 | 61.1 µM | 46.5 µM | > 100 | > 100 | > 100 | 29.6 µM |  | 51.5 | 24.1 µM | 19 µM | > 100 µM | 41.5 µM | 64.3 µM | 20.7 | 22.9 | 96.4
O=C1C=C(c2ccccc2)NC1(c1ccccc1)c1cc(-c2ccccc2)[nH]c1-c1ccccc1 (stereo not given) | > 100 | > 100 |  | > 100 | > 100 µM | 0.586 µM |  | > 100 | > 100 |  |  |  |  |  |  |  |  |  |  | 
